Laboratory results from patent US20250170065A1, “THERAPEUTIC COMPOUNDS, FORMULATIONS, AND USE THEREOF” (priority 2022, published 2025).

What was measured:
[1] = in vivo
Experimental: Particle size reduction for TTI-101 by micronization and nano-milling provided poor bioavailability (e.g., 10-20 times lower bioavailability than a solution of TTI-101). Hot melt extrusion (HME) was used and the resulting dispersions were evaluated using DSC miscibility, DSC extrudability and rheology studies. Polymer systems tried include: Soluplus; Soluplus+Kolliphor RH40; Soluplus+Vitamin E TPGS; and PVPVA64+Kolliphor RH40.

Solubility of TTI-101 = type: physicochemical
Text: The compound of Formula (I) (also referred to as TTI-101) is highly insoluble (“brick dust”). […] Furthermore, the compound of Formula (I) has a crystalline structure with high crystal-lattice energy, contributing to rapid precipitation or crystallization of the compound from solution. Its low solubility and high crystallinity have contributed to various difficulties in preparing formulations that are suitable for administration in human subjects. Current formulations are liquid formulations delivered via capsules. For example, a formulation of the compound of formula (I) dissolved in 60:40 Labrasol®/PEG400 and encapsulated into a hard gelatin capsule (unit dose: 36 mg), while showing encouraging results in 3 dose cohorts, was prevented from advancing to a fourth patient cohort (25.6 mg/kg/day as 12.8 mg/kg twice daily (BID) doses) because of an unacceptably high pill burden. For example, a 70 kg subject in Cohort 4 would require […] per day split into BID doses. […]

## COc1ccc(S(=O)(=O)Nc2cc(-c3c(O)ccc4ccccc34)c(O)c3ccccc23)cc1 [TTI-101]
[1]
  bioavailability lower than a solution of TTI-101: 10-20 times
Solubility of TTI-101
  solubility in aqueous solutions: insoluble
  solubility in most solvents: relatively low solubility
